Measured values published in PMC4957937 (Bioorganic & medicinal chemistry, 2016).
Starred links: 1 amine or outer side, 2 acyl side, 3 side chain; linkers in the order of their positions; H or OH if unused. Non-standard residues stand in square brackets, D forms with d. Residues, ends and D or L forms follow the SMILES beside them. Ahppa(3S,4S) = O=C(C[C@H](O)[C@H](Cc1ccccc1)N[*:1])[*:2]; dNMeF = CN[C@H](Cc1ccccc1)C(=O)O; NMeQ = CN[C@@H](CCC(N)=O)C(=O)O; Lac = C[C@H](O)C(=O)O

Biological target: BACE1 (Homo sapiens, UniProt P56817)
Sequence (P56817 46-501): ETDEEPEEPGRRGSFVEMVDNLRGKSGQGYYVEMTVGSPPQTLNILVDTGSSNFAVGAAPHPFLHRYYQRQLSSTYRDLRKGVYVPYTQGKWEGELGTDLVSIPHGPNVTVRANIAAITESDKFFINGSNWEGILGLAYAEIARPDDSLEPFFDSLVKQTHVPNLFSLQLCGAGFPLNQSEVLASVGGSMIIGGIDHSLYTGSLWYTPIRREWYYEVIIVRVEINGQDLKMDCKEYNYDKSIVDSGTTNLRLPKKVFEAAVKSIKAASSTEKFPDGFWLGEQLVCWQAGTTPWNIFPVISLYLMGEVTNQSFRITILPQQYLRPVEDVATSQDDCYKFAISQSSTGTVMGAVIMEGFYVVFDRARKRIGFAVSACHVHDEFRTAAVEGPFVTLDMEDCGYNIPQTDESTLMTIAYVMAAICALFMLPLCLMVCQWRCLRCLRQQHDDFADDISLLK
Experiment: Antiproteolytic activity assay against BACE1
Type: biochemical
Conditions: fold less potent against BACE1 than against cathepsins D and E

## CC[C@H](C)[C@H](NC(=O)C[C@H](O)[C@H](Cc1ccccc1)NC(=O)[C@H](CCC(N)=O)N(C)C(=O)[C@@H](NC(=O)[C@H](C)O)[C@@H](C)CC)C(=O)NCC(=O)N(C)[C@H](Cc1ccccc1)C(=O)N1CCC[C@H]1C(=O)OC [Tasiamide F (1), Tasiamide F] (H-[Lac]I[NMeQ][Ahppa(3S,4S)]IG[dNMeF]P-OMe)
  Selectivity ratio IC50 BACE1/CatD–E: 12–30
